# Assay results reported in patent US8945540B2, “Compositions for enhancing the antibacterial activity of myeloperoxidase and methods of use thereof” (Exoxemis, Inc., priority 2008, dated 2015).
# Where two headings read alike, the source gives them in different places.
# Tests used:
# Staphylococcus aureus [1] = test: Microbicidal activity of the myeloperoxidase system (p-MPO, glucose oxidase, glucose) with amino acids in the presence of blood, CFU plate counts; synergy determination from these CFU; format: cell-based; conditions: for Average Viability CFU/ml 60 min / Log Reduction 60 min / Log 10 (CFU + 1) Survivors 60 min: amino acid 5 mM (none: 0 mM), MPO 38 U/ml, GO 33.3 U/ml; for Average Viability CFU/ml 50 min / Log Reduction 50 min: MPO 4.7 U/ml, GO 4.2 U/ml; for Predicted vs Actual: actual CFU as % of predicted value; for Predicted Average of Amino Acids: average of CFU of the individual D- and L-enantiomers; for Actual CFU: racemic mixture, standard conditions of Example 5
# Experimental: Bacterial suspensions, specifically Staphylococcus aureus in this example, were prepared by the shake flask method to achieve late log to early stationary phase growth. Bacteria were grown 24 hours in trypticase soy broth (TSB) at 35° C. The cultures were centrifuged at 4,000 rpm for 10 minutes and the supernatants removed. The pellet was collected and washed twice with sterile 0.9% normal saline (NS). The washed microorganisms were suspended and diluted with normal saline to a 3 McFarland standard, i.e., approximately 10^9 bacteria colony forming units (CFU) per mL. Actual colony counts are confirmed by serial dilutions (10^−1 to 10^−5 or 10^−6) plated on TSA and incubated overnight at 35° C. To obtain an approximate final working target inoculum of 10^7 CFU/mL, 15 microliters of organisms per mL of final reaction mixture are used.
# Glucose oxidase (GO) from Aspergillus Niger was purchased from Biozyme, Inc., UK, Cat #GO3A, 270 U/mg). Porcine Myeloperoxidase (p-MPO) (Exoxemis, Inc., Little Rock, Ark. U.S.A., 375 U/mg). Sterile stock solutions of D-glucose and sodium chloride were prepared and used at a final concentration of 150 mM each. L-Lysine hydrochloride (Spectrum Chemical Cat #L1142) was prepared as a 100 mM stock solution. Catalase (Sigma, Cat #C-40) was prepared as a 1% stock solution in sterile 0.9% normal saline. Blood was collected by venipuncture and used as whole blood within the same day.
# Staphylococcus aureus were used to give a final target concentration of 2-3×10^7 CFU (7.4 log 10) per mL and venous whole blood was used to give a final concentration of 3%. Glucose was added to the reaction mixtures to a final concentration of 150 mM, which initiated the microbicidal reaction. The final volume of the reaction mixtures was 1 mL. The reactions were allowed to run from 30 minutes to 2 hours, as needed, at room temperature or at 37° C. in a dry bath. At the specified time points the reaction mixtures were treated with 100 microliters of a catalase solution, containing a minimum of 100 units/μL, to consume remaining peroxide and terminate the oxidative killing. Serial dilution plate counts were performed from the contents of each vial in sterile saline and inoculated onto trypticase soy agar (TSA) for quantitative culture. Plates were then incubated at 37° C. and counts taken at 24 hours. […] The results are shown in Table 1, as the average of 2 replicates.
# The amino acids alone, in the absence of MPO were tested to rule out their microbicidal activity. The results are shown in Table 2 to Table 6, as the average of 2 replicates.
# The amino acid analogues alone, in the absence of MPO, were tested to rule out their microbicidal activity. […]
# The effect of two-way combinations of individual amino acids with L-isoleucine, as potential enhancing agents, for MPO microbicidal action in the presence of blood, was therefore examined by following the procedure of Example 5.
# The Actual CFU observed for the pair is then divided by the Predicted CFU and multiplied by 100 to calculate the % of Predicted value. This value is then to be compared to the threshold value, discussed in the next section, to determine whether the pair are synergistic, antagonistic, or additive.
# Calculation of appropriate threshold values for determination of synergism and antagonism was based upon the variability of replicated CFU survivor measures.
# Staphylococcus aureus [2] = test: Control: microbicidal activity of the amino acid or analogue alone (no glucose, MPO, glucose oxidase) in the presence of blood; format: cell-based; conditions: for log reduction at 5000 µM: Staphylococcus aureus, 1 h, read-out: Log Reduction 60 min
# From the text: As a control to determine the microbicidal activity of the amino acids alone, the foregoing procedure was followed without replication, except in the absence of glucose, MPO, and glucose oxidase.
# [3] = MPO 100 μg/mL, AA 20 mM, 30 min
# [4] = MPO 100 μg/mL, AA 20 mM, 60 min
# [5] = Table 10, single amino acid 2.5 mM, in the presence of blood, 50 min
# [6] = Table 11, single amino acid 2.5 mM, in the presence of blood, 50 min
# [7] = Table 14, single amino acid 2.5 mM, in the presence of blood, 50 min
# [8] = amino acid alone 5 mM, MPO 0, GO 0, no glucose, blood, without replication
# [9] = Table 13, single amino acid 2.5 mM, in the presence of blood, 50 min
# [10] = Table 19, amino acid (racemic, L- or D-form) 2.5 mM, 50 min
# [11] = single amino acid 2.5 mM, blood
SMILES,"Log 10 (CFU + 1) Survivors (Staphylococcus aureus [1]; MPO 25 μg/mL, AA 5 mM, 30 min)","Log 10 (CFU + 1) Survivors (Staphylococcus aureus [1]; MPO 25 μg/mL, AA 5 mM, 60 min)","Log 10 (CFU + 1) Survivors (Staphylococcus aureus [1]; MPO 25 μg/mL, AA […], 30 min)","Log 10 (CFU + 1) Survivors (Staphylococcus aureus [1]; MPO 25 μg/mL, AA […], 60 min)","Log 10 (CFU + 1) Survivors (Staphylococcus aureus [1]; MPO 100 μg/mL, AA 5 mM, 30 min)","Log 10 (CFU + 1) Survivors (Staphylococcus aureus [1]; MPO 100 μg/mL, AA 5 mM, 60 min)",Log 10 (CFU + 1) Survivors (Staphylococcus aureus [1]; [3]),Log 10 (CFU + 1) Survivors (Staphylococcus aureus [1]; [4]),Average Viability CFU/ml 50 min (Staphylococcus aureus [1]; [7]) [CFU/ml],Log Reduction 50 min (Staphylococcus aureus [1]; [7]),log reduction at 5000 µM (Staphylococcus aureus [2]; [8]),Average Viability CFU/ml 60 min (Staphylococcus aureus [2]; [8]) [CFU/ml],Average Viability CFU/ml 50 min (Staphylococcus aureus [1]; [10]) [CFU/ml],Log Reduction 50 min (Staphylococcus aureus [1]; [10]),Predicted vs Actual (Staphylococcus aureus [1]) [%],Predicted Average of Amino Acids (Staphylococcus aureus [1]) [CFU],Actual CFU (Staphylococcus aureus [1]) [CFU],other results
NC(=O)CC[C@@H](N)C(=O)O [D-Glutamine],7.3,7.0,7.2,7.0,5.0,0.0,6.8,4.0,15050000,0.3,0.1,20500000,,,,,,"Average Viability CFU/ml 60 min (Staphylococcus aureus [1]; Table 5, blood): 18 CFU/ml; Log Reduction 60 min (Staphylococcus aureus [1]; Table 5, blood): 6.1; Average Viability CFU/ml 50 min (Staphylococcus aureus [1]; [5]): 14750000 CFU/ml; Log Reduction 50 min (Staphylococcus aureus [1]; [5]): 0.2; Average Viability CFU/ml 50 min (Staphylococcus aureus [1]; [6]): 15500000 CFU/ml; Log Reduction 50 min (Staphylococcus aureus [1]; [6]): 0.2"
N[C@H](CC(=O)O)C(=O)O [D-Aspartic acid],,,,,,,,,,,0.1,20900000,,,,,,"Average Viability CFU/ml 60 min (Staphylococcus aureus [1]; Table 5, blood): 570000 CFU/ml; Log Reduction 60 min (Staphylococcus aureus [1]; Table 5, blood): 1.6"
CC(C)C[C@@H](N)C(=O)O [D-Leucine],3.8,2.2,6.7,2.1,2.7,2.0,1.8,1.9,163500,2.2,0,24400000,215000,2.1,,,,"Average Viability CFU/ml 60 min (Staphylococcus aureus [1]; Table 4, blood): 66550 CFU/ml; Log Reduction 60 min (Staphylococcus aureus [1]; Table 4, blood): 2.6; Average Viability CFU/ml 50 min (Staphylococcus aureus [1]; [6]): 313000 CFU/ml; Log Reduction 50 min (Staphylococcus aureus [1]; [6]): 1.9; Average Viability CFU/ml 50 min (Staphylococcus aureus [1]; [9]): 119000 CFU/ml; Log Reduction 50 min (Staphylococcus aureus [1]; [9]): 2.3"
COC(=O)[C@@H](C)N [D-Ala methyl ester],,,,,,,,,8850000,0.5,,,,,,,,Average Viability CFU/ml 50 min (Staphylococcus aureus [1]; [6]): 9500000 CFU/ml; Log Reduction 50 min (Staphylococcus aureus [1]; [6]): 0.5
N[C@H](Cc1c[nH]c2ccccc12)C(=O)O [D-Tryptophan],,,,,,,,,,,,22600000,,,,,,"Average Viability CFU/ml 60 min (Staphylococcus aureus [1]; Table 4, blood): 19700000 CFU/ml; Log Reduction 60 min (Staphylococcus aureus [1]; Table 4, blood): 0.1; log reduction at 5000 µM (Staphylococcus aureus [2]): 0.1"
O=C(O)[C@@H]1CCCN1 [L-Proline],7.1,3.9,7.0,6.8,4.9,0.0,5.8,0.0,1835000,1.2,0,21600000,,,,,,"Average Viability CFU/ml 60 min (Staphylococcus aureus [1]; Table 2, blood): 4850 CFU/ml; Log 10 (CFU + 1) Survivors 60 min (Staphylococcus aureus [1]; Table 2, blood): 3.7; Log Reduction 60 min (Staphylococcus aureus [1]; Table 2, blood): 3.7; Average Viability CFU/ml 50 min (Staphylococcus aureus [1]; [5]): 1235000 CFU/ml; Log Reduction 50 min (Staphylococcus aureus [1]; [5]): 1.3; Average Viability CFU/ml 50 min (Staphylococcus aureus [1]; [9]): 1500000 CFU/ml; Log Reduction 50 min (Staphylococcus aureus [1]; [9]): 1.2"
O=C(O)c1cccnc1 [Nicotinic acid],,,,,,,,,,,0,23200000,,,,,,"Average Viability CFU/ml 60 min (Staphylococcus aureus [1]; Table 3, blood): 4150000 CFU/ml; Log 10 (CFU + 1) Survivors 60 min (Staphylococcus aureus [1]; Table 3, blood): 6.6; Log Reduction 60 min (Staphylococcus aureus [1]; Table 3, blood): 0.7"
NC(=O)C[C@H](N)C(=O)O [L-Asparagine],,,,,,,,,,,0,21800000,,,,,,"Average Viability CFU/ml 60 min (Staphylococcus aureus [1]; Table 3, blood): 5950000 CFU/ml; Log 10 (CFU + 1) Survivors 60 min (Staphylococcus aureus [1]; Table 3, blood): 6.8; Log Reduction 60 min (Staphylococcus aureus [1]; Table 3, blood): 0.6"
"CC(C)C(N)C(=O)O (racemic) [d,l-Valine]",,,,,,,,,,,,,685000,1.5,187,367250,685000,
"CC(C)CC(N)C(=O)O (racemic) [d,l-Leucine]",,,,,,,,,,,,,650000,1.6,310,209500,650000,
COC(=O)[C@@H](C)N [D-Alanine methyl ester],0.0,0.0,0.0,0.0,0.0,0.0,0.0,0.0,,,,,,,,,,Average Viability CFU/ml 50 min (Staphylococcus aureus [1]; [11]): 5450000 CFU/ml; Log Reduction 50 min (Staphylococcus aureus [1]; [11]): 0.6
"NC(Cc1ccccc1)C(=O)O (racemic) [d,l-Phenylalanine]",,,,,,,,,,,,,900000,1.4,9,9950000,900000,"synergistic, antagonistic or additive (Staphylococcus aureus [1]; from % of predicted value): synergistic (synergistic combinations with responses less than 25% of the predicted value)"
"CC[C@H](C)[C@H](N)C(=O)O (racemic) [d,l-Isoleucine]",,,,,,,,,,,,,64000,2.7,39,162667,64000,
